Assay results taken from PubChem BioAssay (NCI).
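GI50: concentration for 50% inhibition of growth. TGI is the concentration that stops growth completely.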

What was measured:
Assay in all cases: inhibition of tumour cell growth, NCI panel, 384-well format
SW-620 colon = test system: SW-620 colon
ACHN renal = test system: ACHN renal
NCI-H23 lung = test system: NCI-H23 lung
MDA-MB-435 melanoma = test system: MDA-MB-435 melanoma
MDA-MB-468 breast = test system: MDA-MB-468 breast
MOLT-4 leukemia = test system: MOLT-4 leukemia
EKVX NSCLC = test system: EKVX NSCLC
HL-60(TB) leukemia = test system: HL-60(TB) leukemia
IGROV1 ovarian = test system: IGROV1 ovarian
SK-OV-3 ovarian = test system: SK-OV-3 ovarian
NCI-H522 lung = test system: NCI-H522 lung
NCI-H460 NSCLC = test system: NCI-H460 NSCLC
TK-10 renal = test system: TK-10 renal
UACC-257 melanoma = test system: UACC-257 melanoma
SR leukemia = test system: SR leukemia
DU-145 prostate = test system: DU-145 prostate
T-47D breast = test system: T-47D breast
SN12C renal = test system: SN12C renal
786-0 renal = test system: 786-0 renal
NCI-H322M lung = test system: NCI-H322M lung
K-562 leukemia = test system: K-562 leukemia
U251 glioblastoma = test system: U251 glioblastoma
SNB-19 CNS = test system: SNB-19 CNS
HT29 colon = test system: HT29 colon
HS 578T breast = test system: HS 578T breast
SF-268 CNS = test system: SF-268 CNS
HOP-62 NSCLC = test system: HOP-62 NSCLC
SK-MEL-2 melanoma = test system: SK-MEL-2 melanoma
SNB-75 CNS = test system: SNB-75 CNS
PC-3 prostate = test system: PC-3 prostate
UO-31 renal = test system: UO-31 renal
OVCAR-3 ovarian = test system: OVCAR-3 ovarian
OVCAR-8 ovarian = test system: OVCAR-8 ovarian
SK-MEL-5 melanoma = test system: SK-MEL-5 melanoma
SK-MEL-28 melanoma = test system: SK-MEL-28 melanoma
OVCAR-4 ovarian = test system: OVCAR-4 ovarian
RXF 393 renal = test system: RXF 393 renal
NCI-H226 lung = test system: NCI-H226 lung
HCT-116 colon = test system: HCT-116 colon
MCF7 breast = test system: MCF7 breast
KM12 colon = test system: KM12 colon
BT-549 breast = test system: BT-549 breast
M14 melanoma = test system: M14 melanoma
OVCAR-5 ovarian = test system: OVCAR-5 ovarian
CAKI-1 renal = test system: CAKI-1 renal
HOP-92 NSCLC = test system: HOP-92 NSCLC
MALME-3M melanoma = test system: MALME-3M melanoma
UACC-62 melanoma = test system: UACC-62 melanoma
A498 renal = test system: A498 renal
A549 NSCLC = test system: A549 NSCLC
HCT-15 colon = test system: HCT-15 colon
SF-539 CNS = test system: SF-539 CNS
SF-295 CNS = test system: SF-295 CNS
COLO 205 colon = test system: COLO 205 colon
MDA-MB-231 breast = test system: MDA-MB-231 breast

## C=CC(=O)N1CCN([C@@H](CC2CC2)c2ccc([C@H](C)Nc3ncc4c(n3)N(CC)C(=O)OC4)cc2)CC1
SW-620 colon
  GI50: 13.5 µM
  TGI: 26.4 µM
ACHN renal
  GI50: 13.9 µM
  TGI: 26.8 µM
NCI-H23 lung
  GI50: 15.1 µM
  TGI: 61 µM
MDA-MB-435 melanoma
  GI50: 14.3 µM
  TGI: 27.4 µM
MDA-MB-468 breast
  GI50: 2.82 µM
  TGI: 7.69 µM
MOLT-4 leukemia
  GI50: 1.89 µM
  TGI: 3.43 µM
EKVX NSCLC
  GI50: 16.4 µM
  TGI: > 100 µM
HL-60(TB) leukemia
  GI50: 1.82 µM
  TGI: 3.32 µM
IGROV1 ovarian
  GI50: 10.3 µM
  TGI: 22.1 µM
SK-OV-3 ovarian
  GI50: 17.9 µM
  TGI: 37.9 µM
NCI-H522 lung
  GI50: 1.36 µM
  TGI: 4.12 µM
NCI-H460 NSCLC
  GI50: 5.15 µM
  TGI: 17 µM
TK-10 renal
  GI50: 4.36 µM
  TGI: 16.6 µM
UACC-257 melanoma
  GI50: 13.8 µM
  TGI: 26.8 µM
SR leukemia
  GI50: 2.94 µM
  TGI: 8.8 µM
DU-145 prostate
  GI50: 12.7 µM
  TGI: 25.3 µM
T-47D breast
  GI50: 13.9 µM
  TGI: 28 µM
SN12C renal
  GI50: 16.2 µM
  TGI: 29.8 µM
786-0 renal
  GI50: 12.9 µM
  TGI: 25.7 µM
NCI-H322M lung
  GI50: 14 µM
  TGI: 27.3 µM
K-562 leukemia
  GI50: 3.7 µM
  TGI: 16 µM
U251 glioblastoma
  GI50: 15.4 µM
  TGI: 33.4 µM
SNB-19 CNS
  GI50: 17.2 µM
  TGI: 31.1 µM
HT29 colon
  GI50: 14.8 µM
  TGI: 28 µM
HS 578T breast
  GI50: 6.9 µM
  TGI: 19.6 µM
SF-268 CNS
  GI50: 14.4 µM
  TGI: 27.5 µM
HOP-62 NSCLC
  GI50: 10 µM
  TGI: 27.9 µM
SK-MEL-2 melanoma
  GI50: 10.3 µM
  TGI: 22 µM
SNB-75 CNS
  GI50: 7.22 µM
  TGI: 20 µM
PC-3 prostate
  GI50: 10.8 µM
  TGI: 22.7 µM
UO-31 renal
  GI50: 13.9 µM
  TGI: 26.9 µM
OVCAR-3 ovarian
  GI50: 10.2 µM
  TGI: 21.8 µM
OVCAR-8 ovarian
  GI50: 12.7 µM
  TGI: 26.1 µM
SK-MEL-5 melanoma
  GI50: 13.3 µM
  TGI: 30.1 µM
SK-MEL-28 melanoma
  GI50: 16.6 µM
  TGI: 30.2 µM
OVCAR-4 ovarian
  GI50: 13.3 µM
  TGI: 26.1 µM
RXF 393 renal
  GI50: 2.52 µM
  TGI: 12.5 µM
NCI-H226 lung
  GI50: 15.9 µM
  TGI: 36.1 µM
HCT-116 colon
  GI50: 6.57 µM
  TGI: 19.7 µM
MCF7 breast
  GI50: 9.04 µM
  TGI: > 100 µM
KM12 colon
  GI50: 15.1 µM
  TGI: 28.5 µM
BT-549 breast
  GI50: 5.83 µM
  TGI: 18.6 µM
M14 melanoma
  GI50: 14.3 µM
  TGI: 27.3 µM
OVCAR-5 ovarian
  GI50: 16.1 µM
  TGI: 30.4 µM
CAKI-1 renal
  GI50: 11.4 µM
  TGI: 23.6 µM
HOP-92 NSCLC
  GI50: 8.05 µM
  TGI: 20.7 µM
MALME-3M melanoma
  GI50: 19 µM
  TGI: 33.1 µM
UACC-62 melanoma
  GI50: 10.6 µM
  TGI: 22.4 µM
A498 renal
  GI50: 12 µM
  TGI: 24.4 µM
A549 NSCLC
  GI50: 25.3 µM
  TGI: > 100 µM
HCT-15 colon
  GI50: 12 µM
  TGI: 28.9 µM
SF-539 CNS
  GI50: 11.4 µM
  TGI: 23.5 µM
SF-295 CNS
  GI50: 35.3 µM
  TGI: > 100 µM
COLO 205 colon
  GI50: 17.6 µM
  TGI: 31.5 µM
MDA-MB-231 breast
  GI50: 13.9 µM
  TGI: 26.8 µM
